Experimental data taken from the supplement of paper PMC11208160.

Test: recombinant UMI read abundance after kanamycin selection (control-corrected) (log10(CPM+1)); higher = more efficient recombination; extreme values may be limits of the assay; sequences stand for … in AGTGCAGAGAAAATCGGCCAGTTTTCTCTGCCTGCAGTCCGCATGCCGTGGGACCCCTTGGGTTCTAACCTGTTGCCTAGATTTATGCAGCGGACTGCCTTTCTCCCAAAGTGATAAACCGG…AGGTTGGTTTCACT; site = the 11-nt donor
Procedure, shortened: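 Sequencing read counts were converted to CPM, averaged over two replicates and scaled by control-derived factors. Results are given as log10(CPM+1). The reads covered the donor–target junction of recombinant UMIs from a pooled Escherichia coli screen of donor and donor-binding-loop pairs for the IS621 bridge recombinase.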
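Note: IS621 bridge recombinase in Escherichia coli cells against a fixed T5 target plasmid.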

| Sequence | recombinant UMI read abundance (log10) |
| --- | --- |
| GATTATCCATGGACCGGTTTTCCCGGTAATCCGTATTTGCT (site GATTATCCTCG) | 0 |
| AGATCATCATGGACCGGTTTTCCCGGTAATCCGTATTTGCT (site GGATCATCTAG) | 0.911 |
| GCGGTGCCATGGACCGGTTTTCCCGGTAATCCGTATTTGGC (site GCGGTGCCTGC) | 0 |
| TACTTTACATGGACCGGTTTTCCCGGTAATCCGTATTTGCT (site TACTTGACTAG) | 0.00292 |
| GTACATGCATGGACCGGTTTTCCCGGTAATCCGTATTTGGT (site GTCCATGCTAC) | 0.0463 |
| GGCAATCCATGGACCGGTTTTCCCGGTAATCCGTATTTGAA (site GTCAATCCTTT) | 0.236 |
| TATTATCCATGGACCGGTTTTCCCGGTAATCCGTATTTGCT (site TATTATCCTAG) | 0.622 |
| GCGAAAACATGGACCGGTTTTCCCGGTAATCCGTATTTGAT (site GCGAAAACTAA) | 0 |
| TATTTGGCATGGACCGGTTTTCCCGGTAATCCGTATTTGTT (site TATTTGGCTGA) | 0 |
| CTACTCACATGGACCGGTTTTCCCGGTAATCCGTATTTGGA (site CTACTTACTTC) | 0.361 |
| AACTAGACATGGACCGGTTTTCCCGGTAATCCGTATTTGGG (site AACTAGACTCC) | 0.0148 |
| CTTCGTCCATGGACCGGTTTTCCCGGTAATCCGTATTTGTT (site CTTCGTCCTAA) | 0.0114 |
| AAGAAGACATGGACCGGTTTTCCCGGTAATCCGTATTTGCA (site AGGAAGACTTG) | 2.2 |
| GAATCCGCATGGACCGGTTTTCCCGGTAATCCGTATTTGTC (site GAATCCGCTGA) | 2.15 |
| GGCGCACCATGGACCGGTTTTCCCGGTAATCCGTATTTGCA (site GGTGCACCTTG) | 0.00254 |
| CTAGTCACATGGACCGGTTTTCCCGGTAATCCGTATTTGAC (site CTAGTATCTGT) | 0 |
| GTAGGTACATGGACCGGTTTTCCCGGTAATCCGTATTTGGC (site GTAGGTACTGT) | 1.53 |
| CTACTAACATGGACCGGTTTTCCCGGTAATCCGTATTTGGA (site CTCCTAACTTC) | 0.373 |
| TTTGTTACATGGACCGGTTTTCCCGGTAATCCGTATTTGCC (site TTTGTTACTGG) | 0.44 |
| CCCTAGCCATGGACCGGTTTTCCCGGTAATCCGTATTTGCC (site CCCTAGCCTTG) | 0.00543 |
| AATGGATCATGGACCGGTTTTCCCGGTAATCCGTATTTGAC (site AATGGATCTGT) | 2.04 |
| GTTACAACATGGACCGGTTTTCCCGGTAATCCGTATTTGGC (site GTTAGAACTGC) | 0 |
| GTTACTGCATGGACCGGTTTTCCCGGTAATCCGTATTTGCC (site GATACTGCTGG) | 0 |
| AGGGAGACATGGACCGGTTTTCCCGGTAATCCGTATTTGTA (site AGGAAGACTTG) | 0 |
| CCTGCACCATGGACCGGTTTTCCCGGTAATCCGTATTTGGA (site CCTGCACCTTC) | 0.00678 |

| Sequence | recombinant UMI read abundance (log10) |
| --- | --- |
| CGATCGACATGGACCGGTTTTCCCGGTAATCCGTATTTGGT (site CGATCGACTAA) | 0.276 |
| ATGTACACATGGACCGGTTTTCCCGGTAATCCGTATTTGAG (site ATGTACACTCT) | 1.6 |
| AATTTAACATGGACCGGTTTTCCCGGTAATCCGTATTTGCT (site AATATAACTAG) | 1.68 |
| GCGAAGTCATGGACCGGTTTTCCCGGTAATCCGTATTTGGG (site GCGAAGTCTCC) | 1.21 |
| TCCGATTCATGGACCGGTTTTCCCGGTAATCCGTATTTGAG (site TCCGATTCTCT) | 0.00583 |
| ACTACTGCATGGACCGGTTTTCCCGGTAATCCGTATTTGGT (site ACTACTGCTAC) | 0.247 |
| AATGTGTCATGGACCGGTTTTCCCGGTAATCCGTATTTGAC (site AATGTGTCTGT) | 1.77 |
| ATATCTGCATGGACCGGTTTTCCCGGTAATCCGTATTTGTA (site ATATCTGCTTA) | 2 |
| GCGACTGCATGGACCGGTTTTCCCGGTAATCCGTATTTGCC (site GCGACTGCTGG) | 1.65 |
| AATGTGTCATGGACCGGTTTTCCCGGTAATCCGTATTTGAC (site ACTGTGTCTGT) | 0 |
| TCTTTCTCATGGACCGGTTTTCCCGGTAATCCGTATTTGCT (site TCTTTCTCTAG) | 0 |
| ATTCTTACATGGACCGGTTTTCCCGGTAATCCGTATTTGGT (site ATTCTTACTAC) | 0.37 |
| GTTTGGACATGGACCGGTTTTCCCGGTAATCCGTATTTGAC (site GGTTGGACTGT) | 0 |
| GTATGGCCATGGACCGGTTTTCCCGGTAATCCGTATTTGCA (site GCATGGCCTTG) | 0 |
| ATTTGTTCATGGACCGGTTTTCCCGGTAATCCGTATTTGGA (site ATTTGTTCTTC) | 1.4 |
| GCAGACCCATGGACCGGTTTTCCCGGTAATCCGTATTTGAT (site GCAGACCCTAT) | 0.819 |
| ACACATGCATGGACCGGTTTTCCCGGTAATCCGTATTTGAC (site ACACATACTGT) | 2.59 |
| GTGAGAACATGGACCGGTTTTCCCGGTAATCCGTATTTGCT (site GTGAGAACTAG) | 2.25 |
| ACCTAGACATGGACCGGTTTTCCCGGTAATCCGTATTTGGG (site ACCTCGACTCC) | 0.00246 |
| GGCCTCCCATGGACCGGTTTTCCCGGTAATCCGTATTTGTT (site GGCCACCCTAA) | 0.0137 |
| TGTACATCATGGACCGGTTTTCCCGGTAATCCGTATTTGAC (site TGTACAGCTGT) | 0 |
| CTCTGCACATGGACCGGTTTTCCCGGTAATCCGTATTTGCT (site CTCTACACTAG) | 0.861 |
| CCCTTAGCATGGACCGGTTTTCCCGGTAATCCGTATTTGTG (site CCTTTAGCTCA) | 0.0232 |
| TTTAGAACATGGACCGGTTTTCCCGGTAATCCGTATTTGGC (site TTTAGAACTGC) | 0 |
| GATTATCCATGGACCGGTTTTCCCGGTAATCCGTATTTGCT (site GATTATCCTAA) | 0.00555 |

| Sequence | recombinant UMI read abundance (log10) |
| --- | --- |
| ACCTAGGCATGGACCGGTTTTCCCGGTAATCCGTATTTGGG (site ACCTAGTCTCC) | 0.0121 |
| GCGAAAACATGGACCGGTTTTCCCGGTAATCCGTATTTGTT (site GCGAAAACTAC) | 0 |
| ATGGAAACATGGACCGGTTTTCCCGGTAATCCGTATTTGCA (site GTGGAAACTTG) | 0 |
| AATGTGTCATGGACCGGTTTTCCCGGTAATCCGTATTTGAC (site AATGTGTCTGC) | 0 |
| GCATGGTCATGGACCGGTTTTCCCGGTAATCCGTATTTGGA (site GCATGGTCTTC) | 1.31 |
| AGTGGCGCATGGACCGGTTTTCCCGGTAATCCGTATTTGTC (site AGTGGCGCTGA) | 2.86 |
| GAGCTCACATGGACCGGTTTTCCCGGTAATCCGTATTTGAA (site GAGCTCACTCT) | 0.0248 |
| ACAGCATCATGGACCGGTTTTCCCGGTAATCCGTATTTGCG (site ACAGCATCTCG) | 2.33 |
| ACAGTATCATGGACCGGTTTTCCCGGTAATCCGTATTTGCA (site ACAGTCTCTTG) | 2.06 |
| GGTACGTCATGGACCGGTTTTCCCGGTAATCCGTATTTGTC (site GGTACGTCTGA) | 0.0103 |
| TACATGGCATGGACCGGTTTTCCCGGTAATCCGTATTTGCT (site TACATGGCTAG) | 1.32 |
| GGCAATCCATGGACCGGTTTTCCCGGTAATCCGTATTTGAA (site GGGAATCCTTT) | 0.0169 |
| AGGTTCCCATGGACCGGTTTTCCCGGTAATCCGTATTTGTG (site GGGTTCCCTCA) | 0.0086 |
| CGATCATCATGGACCGGTTTTCCCGGTAATCCGTATTTGAT (site CGATCATCTAC) | 0.213 |
| GATTGGACATGGACCGGTTTTCCCGGTAATCCGTATTTGAA (site GATTGGACTAT) | 0.0122 |
| CAAGTCACATGGACCGGTTTTCCCGGTAATCCGTATTTGGG (site CAAATCACTCC) | 0.0224 |
| GTTCGAGCATGGACCGGTTTTCCCGGTAATCCGTATTTGCA (site GTTCCAGCTTG) | 0.541 |
| CCCCAAACATGGACCGGTTTTCCCGGTAATCCGTATTTGTA (site CCCCAGACTTA) | 0.00667 |
| GAAGATTCATGGACCGGTTTTCCCGGTAATCCGTATTTGTT (site GAAGCTTCTAA) | 0.0109 |
| GTTCGAGCATGGACCGGTTTTCCCGGTAATCCGTATTTGCA (site GTTGGAGCTTG) | 0.345 |
| AACTGTCCATGGACCGGTTTTCCCGGTAATCCGTATTTGAT (site AACAGTCCTAT) | 0.00914 |
| TCCTACTCATGGACCGGTTTTCCCGGTAATCCGTATTTGCA (site TCATACTCTTG) | 0 |
| AAAGCCTCATGGACCGGTTTTCCCGGTAATCCGTATTTGAA (site AAAGCCTCTTT) | 2.63 |
| GGTCTAACATGGACCGGTTTTCCCGGTAATCCGTATTTGTA (site GGTCGAACTTA) | 0.0128 |
| TAAAGCCCATGGACCGGTTTTCCCGGTAATCCGTATTTGTA (site TAAAGGCCTTA) | 0.00691 |
